According to patent US10351575B2, “Bicyclic urea, thiourea, guanidine and cyanoguanidine compounds useful for the treatment of pain” (Array BioPharma Inc., priority 2012, dated 2019):

These compounds were tested against His-tagged recombinant human TrkA (Homo sapiens (Human), UniProt P04629) (assay: TrkA LanthaScreen Eu Kinase Binding Assay). Conditions: averaged IC50; TR-FRET binding, 60 min, 22° C.; read-out: TrkA Enzyme IC50.
Sequence of His-tagged recombinant human TrkA (P04629 440-796): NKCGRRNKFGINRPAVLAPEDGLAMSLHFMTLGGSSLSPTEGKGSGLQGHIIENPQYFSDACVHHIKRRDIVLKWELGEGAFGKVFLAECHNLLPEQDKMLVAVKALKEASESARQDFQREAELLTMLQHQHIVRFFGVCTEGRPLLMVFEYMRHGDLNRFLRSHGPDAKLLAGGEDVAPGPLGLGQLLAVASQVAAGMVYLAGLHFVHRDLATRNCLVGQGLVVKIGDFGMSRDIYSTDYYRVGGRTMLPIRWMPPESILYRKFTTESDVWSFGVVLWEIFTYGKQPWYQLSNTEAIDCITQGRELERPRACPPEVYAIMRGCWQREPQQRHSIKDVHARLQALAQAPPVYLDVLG
Description: TrkA binding activity was determined in a TrkA LanthaScreen™ Eu Kinase Binding Assay. 5 nM His-tagged recombinant human TrkA (6HIS tagged cytoplasmic domain from Invitrogen, Catalog No. PV3144) was incubated with 4 nM Alexa-Fluor® Tracer 236 (Invitrogen Cat. No. PV5592), 2 nM biotinylated anti-His (Invitrogen Cat. No. PV6090), and 2 nM europium-labeled Streptavidin (Invitrogen Cat. No. PV5899), in buffer (25 mM MOPS, pH 7.5, 5 mM MgCl2, 0.005% Triton X-100). Three fold serial dilutions of compounds of the invention in DMSO were added to a final percentage of 2% DMSO. After 60-minute incubation at 22° C., the reaction was measured using the EnVision mutlimode plate reader (PerkinElmer) via TR-FRET dual wavelength detection at […]. The percent of control was calculated using a ratiometric emission factor. The IC50 values were determined by fitting a four parameter model to the percent of control data.
Compound `Cc1c(-c2cnn(C)c2)nn(-c2ccccc2)c1NC(=O)NC1CN(CC(F)(F)F)Cc2ccccc21` (stereo not drawn) [Example 25, 1-(1′,4-dimethyl-1-phenyl-1H,1′H-3,4′-bipyrazol-5-yl)-3-(2-(2,2,2-trifluoroethyl)-1,2,3,4-tetrahydroisoquinolin-4-yl)urea] has an IC50 of less than 0.1 µM.
`Cc1c(-c2cn(C)cn2)nn(-c2ccccc2)c1NC(=O)NC1CN(CC(F)(F)F)Cc2ccccc21` (stereo not drawn) [Example 27, 1-(4-methyl-3-(1-methyl-1H-imidazol-4-yl)-1-phenyl-1H-pyrazol-5-yl)-3-(2-(2,2,2-trifluoroethyl)-1,2,3,4-tetrahydroisoquinolin-4-yl)urea] gave an IC50 of less than 0.1 µM.
Work on `O=C(Nc1c2c(nn1-c1ccccc1)CCC2)NC1CN(CC(F)(F)F)Cc2ccccc21` (stereo not drawn) [Example 28, 1-(2-phenyl-2,4,5,6-tetrahydrocyclopenta[c]pyrazol-3-yl)-3-(2-(2,2,2-trifluoroethyl)-1,2,3,4-tetrahydroisoquinolin-4-yl)urea] yielded an IC50 of less than 0.1 µM.
Compound `CNC(=O)c1nn(-c2ccccc2)c(NC(=O)NC2CN(CC(F)(F)F)Cc3ccccc32)c1C` (stereo not drawn) [Example 29, N,4-dimethyl-1-phenyl-5-(3-(2-(2,2,2-trifluoroethyl)-1,2,3,4-tetrahydroisoquinolin-4-yl)ureido)-1H-pyrazole-3-carboxamide] has an IC50 of less than 0.1 µM.
Work on `Cc1c(NC(=O)NC2CN(CC(F)(F)F)Cc3ccccc32)n(-c2ccccc2)[nH]c1=O` (stereo not drawn) [Example 30, 1-(4-methyl-5-oxo-2-phenyl-2,5-dihydro-1H-pyrazol-3-yl)-3-(2-(2,2,2-trifluoroethyl)-1,2,3,4-tetrahydroisoquinolin-4-yl)urea] yielded an IC50 of less than 0.1 µM.
In the case of `Cc1nn(-c2ccccc2)c(NC(=O)NC2CN(CC(F)(F)F)Cc3ccccc32)c1C(N)=O` (stereo not drawn) [Example 31, 3-methyl-1-phenyl-5-(3-(2-(2,2,2-trifluoroethyl)-1,2,3,4-tetrahydroisoquinolin-4-yl)ureido)-1H-pyrazole-4-carboxamide], the IC50 is reported as less than 0.1 µM.
`Cc1c(-c2cnn(C)c2)nn(-c2ccccc2)c1NC(=O)NC1CC(C2CC2)Oc2ccc(Br)cc21` (stereo not drawn) [Example 33, 1-(6-bromo-2-cyclopropylchroman-4-yl)-3-(1′,4-dimethyl-1-phenyl-1H,1′H-[3,4′-bipyrazo]-5-yl)urea] showed an IC50 of less than 0.1 µM.
`Cc1c(-c2cnn(C)c2)nn(-c2ccccc2)c1NC(=O)NC1CC2(CCC2)Oc2ccc(Br)cc21` (stereo not drawn) [Example 34, 1-(6-bromospiro[chroman-2,1′-cyclobutan]-4-yl)-3-(1′,4-dimethyl-1-phenyl-1H,1′H-[3,4′-bipyrazol]-5-yl)urea] gave an IC50 of less than 0.1 µM.
Compound `COCc1ccc2c(c1)C(NC(=O)Nc1c(C)c(-c3cnn(C)c3)nn1-c1ccccc1)CC1(CCC1)O2` (stereo not drawn) [Example 35A, 1-(1′,4-dimethyl-1-phenyl-1H,1′H-[3,4′-bipyrazol]-5-yl)-3-(6-(methoxymethyl)spiro[chroman-2,1′-cyclobutan]-4-yl)urea] has an IC50 of less than 0.1 µM.
Compound `Cc1c(-c2cnn(C)c2)nn(-c2ccccc2)c1NC(=O)NC1CC2(CCC2)Oc2ccccc21` (stereo not drawn) [Example 35B, 1-(1′,4-dimethyl-1-phenyl-1H,1′H-[3,4′-bipyrazol]-5-yl)-3-(spiro[chroman-2,1′-cyclobutan]-4-yl)urea] has an IC50 of 0.1 to 1 µM.
In the case of `Cc1c(-c2cnn(C)c2)nn(-c2ccccc2)c1NC(=O)NC1CCC(=O)c2ccccc21` (stereo not drawn) [Example 36, 1-(1′,4-dimethyl-1-phenyl-1H,1′H-[3,4′-bipyrazol]-5-yl)-3-(4-oxo-1,2,3,4-tetrahydronaphthalen-1-yl)urea], the IC50 is reported as 0.1 to 1 µM.
For `Cc1c(-c2cnn(C)c2)nn(-c2ccccc2)c1NC(=O)NC1CCC(C)(O)c2ccccc21` (stereo not drawn) [Example 37, 1-(1′,4-dimethyl-1-phenyl-1H,1′H-[3,4′-bipyrazol]-5-yl)-3-(4-hydroxy-4-methyl-1,2,3,4-tetrahydronaphthalen-1-yl)urea], the IC50 was 0.1 to 1 µM.
`Cc1c(-c2cnn(C)c2)nn(-c2ccccc2)c1NC(=O)Nc1cn(CC(F)(F)F)c(=O)c2ccccc12` [Example 38, 1-(1′,4-dimethyl-1-phenyl-1H,1′H-[3,4′-bipyrazol]-5-yl)-3-(1-oxo-2-(2,2,2-trifluoroethyl)-1,2-dihydroisoquinolin-4-yl)urea] showed an IC50 of 0.1 to 1 µM.
In the case of `COc1nn(-c2ccccc2)c(NC(=O)NC2CCN(C)c3ccccc32)c1C` (stereo not drawn) [Example 39, 1-(3-methoxy-4-methyl-1-phenyl-1H-pyrazol-5-yl)-3-(1-methyl-1,2,3,4-tetrahydroquinolin-4-yl)urea], the IC50 is reported as less than 0.1 µM.
With `Cc1c(-c2cnn(C)c2)nn(-c2ccccc2)c1NC(=O)NC1CCN(C)c2ccccc21` (stereo not drawn) [Example 40, 1-(1′,4-dimethyl-1-phenyl-1H,1′H-[3,4′-bipyrazol]-5-yl)-3-(1-methyl-1,2,3,4-tetrahydroquinolin-4-yl)urea] the IC50 was 0.1 to 1 µM.
`Cc1c(-c2ccc(=O)n(C)c2)nn(-c2ccccc2)c1NC(=O)NC1CCN(C)c2ccccc21` (stereo not drawn) [Example 41, 1-(1-methyl-1,2,3,4-tetrahydroquinolin-4-yl)-3-(4-methyl-3-(1-methyl-6-oxo-1,6-dihydropyridin-3-yl)-1-phenyl-1H-pyrazol-5-yl)urea] was tested, and the IC50 was less than 0.1 µM.
`CCN1CCC(NC(=O)Nc2c(C)c(-c3ccc(=O)n(C)c3)nn2-c2ccccc2)c2ccccc21` (stereo not drawn) [Example 42, 1-(1-ethyl-1,2,3,4-tetrahydroquinolin-4-yl)-3-(4-methyl-3-(1-methyl-6-oxo-1,6-dihydropyridin-3-yl)-1-phenyl-1H-pyrazol-5-yl)urea] was tested, and the IC50 was less than 0.1 µM.
`Cc1c(-c2ccc(=O)n(C)c2)nn(-c2ccccc2)c1NC(=O)NC1CCN(C)c2c(F)cccc21` (stereo not drawn) [Example 43, 1-(8-fluoro-1-methyl-1,2,3,4-tetrahydroquinolin-4-yl)-3-(4-methyl-3-(1-methyl-6-oxo-1,6-dihydropyridin-3-yl)-1-phenyl-1H-pyrazol-5-yl)urea] gave an IC50 of 0.1 to 1 µM.
Compound `Cc1c(-c2ccc(=O)n(C)c2)nn(-c2ccccc2)c1NC(=O)NC1CCN(C)c2c(F)cc(Cl)cc21` (stereo not drawn) [Example 44, 1-(6-chloro-8-fluoro-1-methyl-1,2,3,4-tetrahydroquinolin-4-yl)-3-(4-methyl-3-(1-methyl-6-oxo-1,6-dihydropyridin-3-yl)-1-phenyl-1H-pyrazol-5-yl)urea] has an IC50 of less than 0.1 µM.
`CCN1CCC(NC(=O)Nc2c(C)c(-c3ccc(=O)n(C)c3)nn2-c2ccccc2)c2cc(Cl)ccc21` (stereo not drawn) [Example 45, 1-(6-chloro-1-ethyl-1,2,3,4-tetrahydroquinolin-4-yl)-3-(4-methyl-3-(1-methyl-6-oxo-1,6-dihydropyridin-3-yl)-1-phenyl-1H-pyrazol-5-yl)urea] showed an IC50 of less than 0.1 µM.
`CCN1CCC(NC(=O)Nc2c(C)c(OC)nn2-c2ccccc2)c2cc(Cl)ccc21` (stereo not drawn) [Example 46, 1-(6-chloro-1-ethyl-1,2,3,4-tetrahydroquinolin-4-yl)-3-(3-methoxy-4-methyl-1-phenyl-1H-pyrazol-5-yl)urea] was tested, and the IC50 was less than 0.1 µM.
For `CO[C@H]1Cc2ccccc2[C@@H]1NC(=O)Nc1c2c(nn1-c1ccccc1)CCC2` [Example 47, 1-((1S,2S)-2-methoxy-2,3-dihydro-1H-inden-1-yl)-3-(2-phenyl-2,4,5,6-tetrahydrocyclopenta[c]pyrazol-3-yl)urea], the IC50 was 0.1 to 1 µM.
Compound `COCCO[C@H]1Cc2ccccc2[C@@H]1NC(=O)Nc1c2c(nn1-c1ccccc1)CCC2` [Example 48, 1-((1S,2S)-2-(2-methoxyethoxy)-2,3-dihydro-1H-inden-1-yl)-3-(2-phenyl-2,4,5,6-tetrahydrocyclopenta[c]pyrazol-3-yl)urea] has an IC50 of 0.1 to 1 µM.
`CCOc1nn(-c2ccccc2)c(NC(=O)N[C@H]2c3ccccc3C[C@@H]2OCCOC)c1C` [Example 49, 1-(3-ethoxy-4-methyl-1-phenyl-1H-pyrazol-5-yl)-3-((1S,2S)-2-(2-methoxyethoxy)-2,3-dihydro-1H-inden-1-yl)urea] gave an IC50 of 0.1 to 1 µM.
`COCCO[C@@H]1Cc2ccccc2[C@H]1NC(=O)Nc1c2c(nn1-c1ccccc1)CCC2` [Example 50, 1-((1R,2R)-2-(2-methoxyethoxy)-2,3-dihydro-1H-inden-1-yl)-3-(2-phenyl-2,4,5,6-tetrahydrocyclopenta[c]pyrazol-3-yl)urea] showed an IC50 of 0.1 to 1 µM.
`COCCO[C@H]1Cc2ccccc2[C@@H]1NC(=O)Nc1c(C)c(-c2cnn(C)c2)nn1-c1ccccc1` [Example 51, 1-(1′,4-dimethyl-1-phenyl-1H,1′H-[3,4′-bipyrazol]-5-yl)-3-((1S,2S)-2-(2-methoxyethoxy)-2,3-dihydro-1H-inden-1-yl)urea] gave an IC50 of 0.1 to 1 µM.
In the case of `COCCO[C@H]1Cc2ccccc2[C@@H]1NC(=O)Nc1c(Br)c(C)nn1-c1ccccc1` [Example 52, 1-(4-bromo-3-methyl-1-phenyl-1H-pyrazol-5-yl)-3-((1S,2S)-2-(2-methoxyethoxy)-2,3-dihydro-1H-inden-1-yl)urea], the IC50 is reported as 0.1 to 1 µM.
`CCOc1nn(-c2ccccc2)c(NC(=O)NC2CCc3ccccc32)c1C` (stereo not drawn) [Example 53, 1-(2,3-dihydro-1H-inden-1-yl)-3-(3-ethoxy-4-methyl-1-phenyl-1H-pyrazol-5-yl)urea] showed an IC50 of 0.1 to 1 µM.
`CCOc1nn(-c2ccccc2)c(NC(=O)N[C@H]2CCc3ccccc32)c1C` [Example 54, (S)-1-(2,3-dihydro-1H-inden-1-yl)-3-(3-ethoxy-4-methyl-1-phenyl-1H-pyrazol-5-yl)urea] was tested, and the IC50 was 0.1 to 1 µM.
`CNC(=O)c1nn(-c2ccccc2)c(NC(=O)N[C@@H]2c3ccccc3C3(CC3)[C@H]2O)c1C` [Example 59, 215-(3-(trans-2′-hydroxy-2′,3′-dihydrospiro[cyclopropane-1,1′-inden]-3′-yl)ureido)-N,4-dimethyl-1-phenyl-1H-pyrazole-3-carboxamide] gave an IC50 of less than 0.1 µM.
